Data set [1] in a line: Excitation and emission values of the fluorescent dyes in solvent. The class given is physicochemical. To be noted: for Emission / Excitation: measured in methanol. How it is done: Some exemplary fluorescent dyes according to the invention together with values for excitation and emission are included in table 1. […] The excitation and emission values of the fluorescent dyes were measured in methanol, which simulates a protein-environment, thus yielding a shift of the emission to shorter wavelengths. For comparison, excitation and emission values for compound 10 were also measured in HEPES buffer (i.e. under initial, aqueous assay conditions). In this aqueous environment, the excitation is 620 nm and the emission is 688 nm compared to an emission at 662 nm in methanol.
(§1) The fluorescent dye will bind to any lipid-binding site of the protein, and the resulting increase in the hydrophobicity surrounding of the dye will result in an increase in the intensity of the fluorescence and a shift in the emission to a shorter wavelength. The emission-wavelength of a compound according to formula I in a hydrophobic surrounding can be determined in a non-aqueous solution such as methanol.

Data set [2] addresses cytochrome c (Homo sapiens, UniProt P99999). To be noted: whole cells; cited from earlier work.
Data set [3] deals with BSA (Bos taurus, UniProt P02769). How it is done: Depending on the strength of the binding of the ligand to the lipid binding site of the protein, the ligand releases the fluorescent dye from the hydrophobic lipid binding site. This can be measured by a decrease of the intensity of fluorescence at the emission wavelength of the dye in hydrophobic surrounding, as imitated by dissolving the dye in methanol.
Sequence of BSA (P02769 25-607): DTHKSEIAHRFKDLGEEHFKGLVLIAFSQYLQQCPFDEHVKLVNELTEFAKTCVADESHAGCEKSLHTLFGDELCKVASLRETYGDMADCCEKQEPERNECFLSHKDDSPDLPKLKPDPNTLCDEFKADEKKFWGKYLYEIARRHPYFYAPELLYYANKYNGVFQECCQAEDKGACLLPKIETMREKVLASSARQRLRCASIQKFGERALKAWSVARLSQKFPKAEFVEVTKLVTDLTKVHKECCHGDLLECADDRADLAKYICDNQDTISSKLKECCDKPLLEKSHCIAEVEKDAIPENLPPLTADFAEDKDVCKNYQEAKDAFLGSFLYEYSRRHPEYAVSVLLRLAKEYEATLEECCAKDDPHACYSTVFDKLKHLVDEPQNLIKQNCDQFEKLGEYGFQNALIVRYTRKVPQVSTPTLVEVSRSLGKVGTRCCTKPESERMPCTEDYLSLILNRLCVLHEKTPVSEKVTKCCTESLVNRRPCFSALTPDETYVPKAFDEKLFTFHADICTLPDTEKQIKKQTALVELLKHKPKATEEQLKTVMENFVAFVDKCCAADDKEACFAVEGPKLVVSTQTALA
Increasing concentrations of lipid or drug were added to replace the dye in a dose-dependent fashion. Fluorescence values at 620 nm were corrected for basal fluorescence at 620 nm prior to protein addition as well as for dilution effects from adding increasing ligand concentrations. The starting fluorescence value minus the value at a given ligand concentration was plotted as % replacement.

For data set [4], the target named is T1, peroxisomal matrix protein (SCP2) (Homo sapiens, UniProt P22307).
T1 sequence (P22307 1-143 isoform P22307-2): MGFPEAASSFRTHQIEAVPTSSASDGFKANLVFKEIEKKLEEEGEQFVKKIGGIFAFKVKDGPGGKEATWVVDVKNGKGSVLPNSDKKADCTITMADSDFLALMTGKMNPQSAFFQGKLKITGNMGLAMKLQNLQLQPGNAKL
The data set can be described thus: Titration of fluorescent dye with peroxisomal matrix protein (SCP2). To be noted: dye 250 nM, FIG. 2b. The class given is binding.
From the text: (§2) In a preferred embodiment of the invention, the assay for identifying lipid binding sites of proteins using the compounds according to formula I as defined above, comprises the steps of • a) dissolving a compound according to formula I as defined above in an aqueous solvent, • b) adding the protein to be tested for containing a lipid binding site, preferably in various concentrations, • c) measuring the intensity of fluorescence emission at the wavelength of maximal emission of the fluorescent dye.
as §1
(§3) For determining the submaximal concentration of dye binding to the protein, the latter was titrated until no further fluorescence increase at 620 nm could be detected.

The target in data set [5] is bovine serum albumin (BSA) (Bos taurus, UniProt P02769). The data set can be described thus: Titration of fluorescent dye with bovine serum albumin (BSA). The data set is classed as binding. To be noted: for wavelength of maximal emission intensity: FIG. 1a/1b.
Sequence of bovine serum albumin (BSA) (P02769 25-607): as the sequence (P02769 25-607) above
From the text: as §2, §1, §3

Data set [6] can be described thus: Water solubility. The data set is classed as physicochemical.

Entries after “also recorded” stand apart in the source; their conditions may differ. Where two headings read alike, the source gives them in different places.

These results are taken from US20080038840A1, “Fluorescent Method And Compounds To Monitor Protein-Lipid Binding” (EUROPAEISCHES LABORATORIUM FUER MOLEKULARBIOLOGIE, priority 2004, published 2008).

Sequence of cytochrome c (P99999 whole entry, species assumed): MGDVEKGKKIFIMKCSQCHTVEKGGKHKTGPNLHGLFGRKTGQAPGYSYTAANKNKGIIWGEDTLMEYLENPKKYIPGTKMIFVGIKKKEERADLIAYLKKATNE

For the compound `CCN(CC)c1cc(C)c2nc3c4ccc(O)cc4c(=O)cc-3sc2c1` [compound 6, 9-Diethylamino-3-hydroxy-11-methyl-benzo[a]phenothiazin-5-one], in data set [1], the Emission is 665 nm and the Excitation amounted to 580 nm.
The like results for `CCN(CC)c1ccc2nc3c4cc(O)ccc4c(=O)c(Br)c-3oc2c1` [compound 2] were, in that order, 640 nm and 550 nm.
In data set [1], `CCN(CC)c1ccc2nc3c4cc(O)ccc4c(=O)cc-3oc2c1` [compound 1] yielded an Emission of 629 nm and an Excitation of 540 nm.
Turning to `CCN(CC)c1ccc2nc3c4ccccc4c(=O)cc-3oc2c1` [nile red], the “quenching of fluorescence by cytochrome c” value in data set [2] is “strong quenching effect”.
Regarding `CCN(CC)c1ccc2nc3c4ccc(O)c(Br)c4c(=O)c(Br)c-3oc2c1` [compound 5, 4,6-Dibromo-9-diethylamino-3-hydroxy-benzo[a]phenoxazin-5-one], in data set [1], the Emission is recorded as 653 nm and the Excitation was 562 nm.
The like results for `CCN(CC)c1ccc2nc3c4ccc(O)cc4c(=O)c(Br)c-3oc2c1` [compound 4, 6-Bromo-9-diethylamino-3-hydroxy-benzo[a]phenoxazin-5-one] were, in that order, 650 nm and 552 nm.
With `CCCCOc1ccc2c3nc4ccc(N(CC)CC)cc4oc-3c(Br)c(=O)c2c1` [compound 8], in data set [1], the “Quantum Yield” value is on record as 0.35, the Emission came out at 650 nm and the Excitation turned out to be 556 nm.
In the case of `N[C@@H](Cc1c[nH]c2ccccc12)C(=O)O` [tryptophan], the “release of dye from BSA” value was “not able to release all the dye from BSA” in data set [3] (2BrNR 250 nM, 5.54 μM BSA, 282.62 μM ligand, FIG. 5a) and “not able to release all the dye from BSA” in data set [3] (NRBA, 2 μM BSA, 1 mM ligand, FIG. 5b). Also, the “lipid binding sites of albumin occupied / dye molecules replaced” value in data set [3] (replacement of NRBA from 2 μM BSA, FIG. 4/5b) is recorded as “only replaced one molecule of the dye; also recorded: occupation of one binding site”.
As to `CCCCOc1ccc2c3nc4c(C)cc(N(CC)CC)cc4sc-3cc(=O)c2c1` [compound 7], in data set [1], the “Quantum Yield” value is on record as 0.29, the Emission is given as 664 nm and the Excitation is on record as 585 nm.
In the case of `CCN(CC)c1ccc2nc3c4cc(OCCCC(=O)O)ccc4c(=O)cc-3oc2c1` [compound 11, nile red butyric acid], the “binding of SCP2 to dye compared with BSA and MAO B” value in data set [4] is “weakest”. The “change of fluorescence on titration with BSA” value in data set [5] (FIG. 1a (dye 0.25 μM) / FIG. 1b (dye 3 μM)) was “shift in the emission to a shorter wavelength and an increase in the intensity of the fluorescence”. Further, the “binding of BSA to dye compared with SCP2 and MAO B” value in data set [5] (dye 250 nM, FIG. 2b) is given as “strongest binding”. Further, the “wavelength of maximal emission intensity” value in data set [5] (in the absence of BSA) was found to be 657 nm. The “wavelength of maximal emission intensity” value in data set [5] (in the presence of BSA) is recorded as 620 nm. In data set [1], this compound had an Emission of 631 nm and an Excitation of 544 nm. Further, in data set [6], the water solubility entry is on record as “increased water solubility”.
On to `CCN(CC)c1ccc2nc3c4cc(O)ccc4c(=O)c(Cl)c-3oc2c1` [compound 3], for which, in data set [1], the Emission was found to be 643 nm and the Excitation is 549 nm.
